# Source: paper PMC3449313 (Peptides, 2012)
# Key:
# [1] = system: D. melanogaster pupal heart (white prepupae); type: in vivo, Drosophila melanogaster; conditions: 1 uM; without PI; relative to the effect of DMS; mean
# [2] = system: D. melanogaster adult gut; test: adult gut contraction; type: in vivo, Drosophila melanogaster; conditions: 0.1 nM; without PI; relative to the effect of DMS; mean
substance,measurement,setting,value
VFLRFamide [[6-10]DMS],% Inhibition Pupal heart (without protease inhibitor),[1],103%
same,% Inhibition Adult gut (without protease inhibitor),[2],78%
